Measured values taken from patent US20240124432A1, “HERBICIDAL COMPOUNDS” (SYNGENTA CROP PROTECTION AG, priority 2020, published 2024).

What was measured:
Type in all cases: in vivo
[1] = tested on: AMAPA; assay: Pre-emergence biological efficacy; conditions: Amaranthus palmeri, 312 h, evaluated after 13 days, read-out: damage to plant (100=total damage to plant; 0=no damage to plant)
Summary of the method: (§1)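 Pots sown and kept one day in glasshouse (24/19° C., 16 h light), then sprayed with compound formulated in IF50 (50 g/l) diluted in 0.2% Genapol XO80 to final dose. Grown at 24/18° C., 15 h light, 50% humidity; damage scored after 13 days, 0 none to 100 total.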

[2] = tested on: ECHCG; assay: Pre-emergence biological efficacy; conditions: Echinochloa crus-galli, 312 h, evaluated after 13 days, read-out: damage to plant (100=total damage to plant; 0=no damage to plant)
Summary of the method: as §1

[3] = tested on: EPHHL; assay: Pre-emergence biological efficacy; conditions: Euphorbia heterophylla, 312 h, evaluated after 13 days, read-out: damage to plant (100=total damage to plant; 0=no damage to plant)
Summary of the method: as §1

[4] = tested on: IPOHE; assay: Pre-emergence biological efficacy; conditions: Ipomoea hederacea, 312 h, evaluated after 13 days, read-out: damage to plant (100=total damage to plant; 0=no damage to plant)
Summary of the method: as §1

[5] = tested on: LOLPE; assay: Pre-emergence biological efficacy; conditions: Lolium perenne, 312 h, evaluated after 13 days, read-out: damage to plant (100=total damage to plant; 0=no damage to plant)
Summary of the method: as §1

[6] = tested on: SETFA; assay: Pre-emergence biological efficacy; conditions: Setaria faberi, 312 h, evaluated after 13 days, read-out: damage to plant (100=total damage to plant; 0=no damage to plant)
Summary of the method: as §1

[7] = tested on: AMAPA; assay: Post-emergence biological efficacy; conditions: Amaranthus palmeri, 312 h, evaluated after 13 days, read-out: damage to plant (100=total damage to plant; 0=no damage to plant)
Summary of the method: (§2)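 Plants grown 14 days in glasshouse, then sprayed post-emergence with compound formulated in IF50 and diluted in 0.2% Genapol XO80 to the desired dose. Damage scored after 13 days on a 0–100 scale (100 = total damage).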

[8] = tested on: CHEAL; assay: Post-emergence biological efficacy; conditions: Chenopodium album, 312 h, evaluated after 13 days, read-out: damage to plant (100=total damage to plant; 0=no damage to plant)
Summary of the method: as §2

[9] = tested on: DIGSA; assay: Post-emergence biological efficacy; conditions: Digitaria sanguinalis, 312 h, evaluated after 13 days, read-out: damage to plant (100=total damage to plant; 0=no damage to plant)
Summary of the method: as §2

[10] = tested on: ECHCG; assay: Post-emergence biological efficacy; conditions: Echinochloa crus-galli, 312 h, evaluated after 13 days, read-out: damage to plant (100=total damage to plant; 0=no damage to plant)
Summary of the method: as §2

[11] = tested on: ELEIN; assay: Post-emergence biological efficacy; conditions: 312 h, evaluated after 13 days, read-out: damage to plant (100=total damage to plant; 0=no damage to plant)
Summary of the method: as §2

[12] = tested on: EPHHL; assay: Post-emergence biological efficacy; conditions: Euphorbia heterophylla, 312 h, evaluated after 13 days, read-out: damage to plant (100=total damage to plant; 0=no damage to plant)
Summary of the method: as §2

[13] = tested on: IPOHE; assay: Post-emergence biological efficacy; conditions: Ipomoea hederacea, 312 h, evaluated after 13 days, read-out: damage to plant (100=total damage to plant; 0=no damage to plant)
Summary of the method: as §2

[14] = tested on: LOLPE; assay: Post-emergence biological efficacy; conditions: Lolium perenne, 312 h, evaluated after 13 days, read-out: damage to plant (100=total damage to plant; 0=no damage to plant)
Summary of the method: as §2

[15] = tested on: SETFA; assay: Post-emergence biological efficacy; conditions: Setaria faberi, 312 h, evaluated after 13 days, read-out: damage to plant (100=total damage to plant; 0=no damage to plant)
Summary of the method: as §2

Row | Structure (SMILES) | pest or weed control at 250 g/ha [1] [%] | pest or weed control at 250 g/ha [2] [%] | pest or weed control at 250 g/ha [3] [%] | pest or weed control at 250 g/ha [4] [%] | pest or weed control at 250 g/ha [5] [%] | pest or weed control at 250 g/ha [6] [%] | pest or weed control at 250 g/ha [7] [%] | pest or weed control at 250 g/ha [8] [%] | pest or weed control at 250 g/ha [9] [%] | pest or weed control at 250 g/ha [10] [%] | pest or weed control at 250 g/ha [11] [%] | pest or weed control at 250 g/ha [12] [%] | pest or weed control at 250 g/ha [13] [%] | pest or weed control at 250 g/ha [14] [%] | pest or weed control at 250 g/ha [15] [%]
1 | CCOC(=O)C1(C)CC(c2cc(-c3cnc4ccccc4c3)c(F)cc2Cl)=NO1 (stereo not drawn) [Compound 1-439, Ethyl 3-[2-chloro-4-fluoro-5-(3-quinolyl)-phenyl]-5-methyl-4H-isoxazole-5-carboxylate] | 50 | 30 | 10 | 10 | 20 | 20 | 70 | 50 | 30 | 30 | 50 | 40 | 40 | 20 | 30
2 | CCOC(=O)C1(C)CC(c2cc(-c3cnc4c(c3)OC(F)(F)O4)c(F)cc2Cl)=NO1 (stereo not drawn) [Compound 1-451, Ethyl 3-[2-chloro-5-(2,2-difluoro-[1,3]dioxolo[4,5-b]pyridin-6-yl)-4-fluoro-phenyl]-5-methyl-4H-isoxazole-5-carboxylate] | 90 | 40 | 80 | 50 | 40 | 40 | 100 | 100 | 100 | 100 | 100 | 100 | 100 | 100 | 100
3 | CCOC(=O)C1(C)CC(c2cc(-c3ccc(C)nc3F)c(F)cc2Cl)=NO1 (stereo not drawn) [Compound 1-463, Ethyl 3-[2-chloro-4-fluoro-5-(2-fluoro-6-methyl-3-pyridyl)-phenyl]-5-methyl-4H-isoxazole-5-carboxylate] | 20 | 50 | 20 | 10 | 10 | 30 | 70 | 70 | 70 | 90 | 60 | 70 | 100 | 0 | 90
4 | CCOC(=O)C1(C)CC(c2cc(-c3cc(F)cnc3Cl)c(F)cc2Cl)=NO1 (stereo not drawn) [Compound 1-475, Ethyl 3-[2-chloro-5-(2-chloro-5-fluoro-3-pyridyl)-4-fluoro-phenyl]-5-methyl-4H-isoxazole-5-carboxylate] | 0 | 0 | 40 | 20 | 0 | 0 | 100 | 100 | 50 | 80 | 30 | 70 | 100 | 10 | 80
5 | CCOC(=O)C1(C)CC(c2cc(-c3ccncc3)c(F)cc2Cl)=NO1 (stereo not drawn) [Compound 1-487, Ethyl 3-[2-chloro-4-fluoro-5-(4-pyridyl)-phenyl]-5-methyl-4H-isoxazole-5-carboxylate] | 0 | 0 | 0 | 0 | 0 | 0 | 30 | 0 | 0 | 0 | 0 | 0 | 0 | 0 | 0
6 | CCOC(=O)C1(C)CC(c2cc(-c3ccnc(C(F)(F)F)c3)c(F)cc2Cl)=NO1 (stereo not drawn) [Compound 1-499, Ethyl 3-[2-chloro-4-fluoro-5-[2-(trifluoromethyl)-4-pyridyl]-phenyl]-5-methyl-4H-isoxazole-5-carboxylate] | 20 | 0 | 0 | 0 | 20 | 0 | 80 | 80 | 60 | 50 | 60 | 50 | 70 | 0 | 80
7 | CCOC(=O)C1(C)CC(c2cc(-c3cc(Cl)ncc3OC)c(F)cc2Cl)=NO1 (stereo not drawn) [Compound 1-511, Ethyl 3-[2-chloro-5-(2-chloro-5-methoxy-4-pyridyl)-4-fluoro-phenyl]-5-methyl-4H-isoxazole-5-carboxylate] | 0 | 0 | 0 | 0 | 0 | 0 | 40 | 50 | 30 | 30 | 40 | 50 | 60 | 0 | 30
8 | CCOC(=O)C1(C)CC(c2cc(-c3cc(Cl)nc(OC)c3)c(F)cc2Cl)=NO1 (stereo not drawn) [Compound 1-523, Ethyl 3-[2-chloro-5-(2-chloro-6-methoxy-4-pyridyl)-4-fluoro-phenyl]-5-methyl-4H-isoxazole-5-carboxylate] | 0 | 20 | 0 | 0 | 0 | 0 | 50 | 40 | 50 | 20 | 10 | 50 | 60 | 0 | 50
9 | CCOC(=O)C1(C)CC(c2cc(-c3ncc(F)cc3F)c(F)cc2Cl)=NO1 (stereo not drawn) [Compound 1-551, Ethyl 3-[2-chloro-5-(3,5-difluoro-2-pyridyl)-4-fluoro-phenyl]-5-methyl-4H-isoxazole-5-carboxylate] | 80 | 80 | 50 | 60 | 50 | 90 | 100 | 100 | 100 | 100 | 100 | 90 | 100 | 100 | 100
10 | CCOC(=O)C1(C)CC(c2cc(-c3ncc(Br)cc3Cl)c(F)cc2Cl)=NO1 (stereo not drawn) [Compound 1-559, Ethyl 3-[5-(5-bromo-3-chloro-2-pyridyl)-2-chloro-4-fluoro-phenyl]-5-methyl-4H-isoxazole-5-carboxylate] | 100 | 90 | 50 | 10 | 50 | 80 | 100 | 100 | 80 | 100 | 90 | 100 | 100 | 90 | 100
